Literature values as cited in patent publication US20230330223A1, “TREATMENT OF HER2 NEGATIVE, MAMMAPRINT HIGH RISK 2 BREAST CANCER” (Agendia N.V., priority 2020, published 2023).

System: locally advanced breast cancer (Stage II/III)
Details: added to standard neoadjuvant chemotherapy; ERBB2-negative (HER2-negative) breast cancer

## pembrolizumab: immune check point inhibitor, PD1/PDL1 inhibitor antibody (Merck)
  estimated pCR rates, change versus standard chemotherapy: more than doubled
